Eleven compounds from patent publication US20110117081A1, “FUNCTIONALIZED PYRROLIDINES AND USE THEREOF AS IAP INHIBITORS” (priority 2008, published 2011) can be followed below.

The subject of assay [1] is Colorectal carcinoma HCT116 cells. In words: HCT116 + ETR1 cell viability assay (MTT). The note with it: with ETR1 (40 ng/ml), 72 hrs. It is filed as cell-based. The procedure:
Colorectal carcinoma HCT116 cells (ATCC# CCL-247) were cultured as monolayers in 96 well plates at a density of 2000 cells per well in 100 ul of McCoy's 5a medium (HyClone) supplemented with 2.2 g/L sodium bicarbonate (Gibco), 10% FBS (HyClone) and 1% penecillin/streptomycin (HyClone) for 24 hours. Triplicate wells of cells were treated for 72 hrs at 37° C. (5% CO2) with 50 ul of HGS agonistic Trail receptor antibody, ETR1 (40 ng/ml) in combination with 50 ul of diluted compound (0.01 to 10000 nM). Metabolic viability of remaining cells was assessed by MTT assay.
(§1) The percentage viability of compound-treated cells was expressed as a fraction of the absorbance/luminescence signal obtained from non-treated cells. EC50 values (corresponding to 50% cell survival in the presence of compound as compared to untreated controls) were calculated from MTT survival curves (HCT116 and SKOV3) using BioAssay software (CambridgeSoft) and from Cell Titer-Glo survival curves (synovioycte and Jurkat cells) using GraphPad Prism (Graph Pad Software Inc.). In the below chart, EC50 values are summarized as follows: a=EC50 of less than 10 nM; b=EC50 of 10-100 nM; and c=EC50 of greater than 100 nM.

Assay [2] deals with Rheumatoid arthritis human fibroblast-like synoviocytes (HFLS-RA). The assay can be described thus: Human synoviocytes + Fas antibody cell viability assay (Cell Titer-Glo). The note with it: with anti-human CD95 (Fas) antibody (300 ng/ml), 72 hrs, read-out: EC50 synoviocyctes + FAS. The format is cell-based. The procedure: Rheumatoid arthritis human fibroblast-like synoviocytes (HFLS-RA, Cell Applications Inc.) were seeded in 96-well plates at 3000 cells per well in 100 ul of complete synoviocyte growth medium (Cell Applications Inc.) one day prior to treatment. Triplicate wells of cells were treated by the addition of 50 ul of diluted compound (0.01 to 100 nM) in combination with 50 ul of anti-human CD95 (Fas) antibody (300 ng/ml; clone CH-11, Beckman Coulter/Immunotech) and incubated at 37° C. (5% CO2) for 72 hrs. Cell viability was measured by Cell Titer-Glo Luminescent Assay (Promega). Briefly, 100 ul of media was removed from wells and an equal volume of Cell Titer-Glo Reagent was added to the cells. The plates were mixed for 2 minutes on an orbital shaker and after a 10-minute incubation period at room temperature, the emitted luminescence was detected using a Tecan Infinite F200 spectrophotometer.
as §1
(In general: Cellular ATP, detected with luciferase, serves as a proxy for viable cell number.)

In assay [3] the test system is Ovarian adenocarcinoma SKOV3 cells. The assay can be described thus: SKOV3 cell viability assay (MTT). The note with it: Homo sapiens, SK-OV-3, 72 hours. It is filed as cell-based. The procedure:
Ovarian adenocarcinoma SKOV3 cells (ATCC# HTB-77) were cultured as monolayers in McCoy's 5a medium (HyClone) supplemented with 2.2 g/L sodium bicarbonate (Gibco), 10% FBS (HyClone) and 1% penicillin/streptomycin (HyClone). Cells were seeded in tissue culture-treated 96 well plates at 5000 cells/well in 150 ul of media. After 24 hours, triplicate wells of cells were treated with various concentrations of compound (0.01 to 10000 nM) diluted in 50 ul of culture media. Cells were incubated at 37° C. (5% CO2) in the presence of compound for 72 hours. Metabolic viability of remaining cells was assessed by MTT (thiazolyl blue tetrazolium bromide, Sigma) assay. 20 ul of MTT reagent (10 mg/ml) was added per well and plates were incubated for 4 hours at 37° C. (5% CO2). The supernatant was then removed from the plate. The converted MTT product was solubilized with 100 uL of isopropanol and the absorbance was read at 570 nm using a Tecan spectrophotometer.
as §1

The next assay relates to HCT-116 xenograft. In words: Tumor suppressive effect in combination with ETR1, HCT-116 xenograft model. The note with it: 1 mg/kg IV, 5 on/2off; with Mapatumamab 10 mg/kg IP twice weekly; after 3 weeks of treatment; CD-1 nude mice. The format is in vivo. The procedure: Tumor Suppressive Effect of Compound in Combination with ETR1 using an HCT-116 Xenograft Model
Female, CD-1, nude mice received 1.5×10^6 HCT-116 cells (in 100 uL of serum-free media) subcutaneously at the right flank. When average tumor size reached ˜150 mm^3 groups were formed using a balanced design based on tumor size, and treatment commenced. Tumor bearing mice were treated with either vehicle (5% D5W; 5 mL/kg, IV) or compound (1 mg/kg, IV) using a 5 on/2off treatment schedule. Mapatumamab (10 mg/kg, IP) was given twice weekly for the duration of the experiment, commencing one day after IAP inhibitory compounds.

The subject of the next assay is H460 xenograft. In words: Tumor suppressive effect in combination with Taxotere, H460 xenograft model. The format is in vivo. Particulars: 1 mg/kg IV, 5 on/2off; with Taxotere 30 mg/kg IP; after 3 weeks of treatment; CD-1 nude mice. The procedure: Tumor Suppressive Effect of Compound in Combination with Taxotere using an H460 Xenograft Model
Female, CD-1, nude mice received 1×10^6 H460 cells (in 100 uL of serum-free media) subcutaneously at the right flank. When average tumor size reached ˜100 mm^3 groups were formed using a balanced design based on tumor size, and treatment commenced. Tumor bearing mice were treated with either vehicle (5% D5W; 5 mL/kg, IV) or compound (1 mg/kg, IV) using a 5 on/2off treatment schedule. Taxotere (30 mg/kg, IP) was given twice, one week apart commencing one day after IAP inhibitory compounds.

A value given as a limit tells only on which side of the number the result lay.

As usually defined, the EC50 is the concentration that produces a half-maximal response. Consider `CN[C@@H](C)C(=O)N[C@H](C(=O)N1C[C@@H](NC(=O)C2CCC(C(=O)N[C@H]3C[C@@H](C(=O)NC(c4ccccc4)c4ccccc4)N(C(=O)[C@@H](NC(=O)[C@H](C)NC)C4CCCCC4)C3)CC2)C[C@H]1C(=O)NC(c1ccccc1)c1ccccc1)C1CCCCC1` (stereo partly drawn) [Compound 7], for which the EC50 in assay [1], in assay [2] and in assay [3] was less than 10 nM each time.

As to `CN[C@@H](C)C(=O)N[C@H](C(=O)N1C[C@@H](NC(=O)C2CCC(C(=O)N[C@H]3C[C@@H](C(=O)N[C@@H]4CCc5ccccc54)N(C(=O)[C@@H](NC(=O)[C@H](C)NC)C4CCCCC4)C3)CC2)C[C@H]1C(=O)N[C@@H]1CCc2ccccc21)C1CCCCC1` (stereo partly drawn) [Compound 3], the EC50 in assay [1], in assay [2] and in assay [3] was less than 10 nM in each case.

On to `CC[C@H](NC)C(=O)N[C@H](C(=O)N1C[C@@H](NC(=O)c2ccc(C(=O)N[C@H]3C[C@@H](C(=O)N[C@@H]4CCCc5ccccc54)N(C(=O)[C@@H](NC(=O)[C@H](CC)NC)C4CCCCC4)C3)cc2)C[C@H]1C(=O)N[C@@H]1CCCc2ccccc21)C1CCCCC1` [Compound 51], for which the EC50 in assay [1] and in assay [2] was less than 10 nM throughout.

Consider `CN[C@@H](C)C(=O)N[C@H](C(=O)N1C[C@@H](NC(=O)c2ccc(C(=O)N[C@H]3C[C@@H](C(=O)N4CC[C@@H](c5ccccc5)C4)N(C(=O)[C@@H](NC(=O)[C@H](C)NC)C4CCCCC4)C3)cc2)C[C@H]1C(=O)N1CC[C@@H](c2ccccc2)C1)C1CCCCC1` [Compound 41], for which the EC50 in assay [1] and in assay [2] was 10 to 100 nM in each case.

Consider `CN[C@@H](C)C(=O)N[C@H](C(=O)N1C[C@@H](NC(=O)c2ccc(C(=O)N[C@H]3C[C@@H](C(=O)N[C@@H]4CCCc5ccccc54)N(C(=O)[C@@H](NC(=O)[C@H](C)NC)C4CCCCC4)C3)cc2)C[C@H]1C(=O)N[C@@H]1CCCc2ccccc21)C1CCCCC1` [Compound 1], for which the EC50 in assay [1], in assay [2] and in assay [3] was less than 10 nM throughout. Also, the “tumor growth suppression relative to vehicle treated controls” value was 59% with HCT-116 xenograft and 54% in the assay on H460 xenograft.

As for `CN[C@@H](C)C(=O)N[C@H](C(=O)N1C[C@@H](NC(=O)c2ccc(C(=O)N[C@H]3C[C@@H](C(=O)N[C@H](C)c4ccc(F)cc4)N(C(=O)[C@@H](NC(=O)[C@H](C)NC)C4CCCCC4)C3)cc2)CC1C(=O)N[C@H](C)c1ccc(F)cc1)C1CCCCC1` (stereo partly drawn) [Compound 26], the EC50 in assay [1] and in assay [3] was less than 10 nM in each case.

For the compound `CN[C@@H](C)C(=O)N[C@H](C(=O)N1C[C@@H](NC(=O)c2ccc(-c3ccc(C(=O)N[C@H]4C[C@@H](C(=O)NC5c6ccccc6-c6ccccc65)N(C(=O)[C@@H](NC(=O)[C@H](C)NC)C5CCCCC5)C4)cc3)cc2)C[C@H]1C(=O)NC1c2ccccc2-c2ccccc21)C1CCCCC1` [Compound 12], the EC50 in assay [1] is less than 10 nM; in assay [3] it was 10 to 100 nM.

`CN[C@@H](C)C(=O)N[C@H](C(=O)N1C[C@@H](NC(=O)c2ccc3cc(C(=O)N[C@H]4C[C@@H](C(=O)N[C@@H]5CCc6ccccc65)N(C(=O)[C@@H](NC(=O)[C@H](C)NC)C5CCCCC5)C4)ccc3c2)C[C@H]1C(=O)N[C@@H]1CCc2ccccc21)C1CCCCC1` [Compound 22]: the EC50 in assay [1] and in assay [3] was less than 10 nM throughout.

Take `CN[C@@H](C)C(=O)N[C@H](C(=O)N1C[C@@H](NC(=O)c2ccc(-c3ccc(C(=O)N[C@H]4C[C@@H](C(=O)N[C@@H]5CCc6ccccc65)N(C(=O)[C@@H](NC(=O)[C@H](C)NC)C5CCCCC5)C4)cc3)cc2)C[C@H]1C(=O)N[C@@H]1CCc2ccccc21)C1CCCCC1` [Compound 10]: the EC50 in assay [1] and in assay [3] was less than 10 nM each time.

Take `CN[C@@H](C)C(=O)N[C@H](C(=O)N1C[C@@H](NC(=O)c2ccc(C(=O)N[C@H]3C[C@@H](C(=O)N4CCCC[C@@H]4c4ccccc4)N(C(=O)[C@@H](NC(=O)[C@H](C)NC)C4CCCCC4)C3)cc2)CC1C(=O)N1CCCC[C@@H]1c1ccccc1)C1CCCCC1` (stereo partly drawn) [Compound 28]: the EC50 in assay [1] and in assay [3] was 10 to 100 nM in each case.

Regarding `CN[C@@H](C)C(=O)N[C@H](C(=O)N1C[C@@H](NC(=O)c2ccc(C(=O)N[C@H]3C[C@@H](C(=O)N[C@H](COCc4ccccc4)c4ccccc4)N(C(=O)[C@@H](NC(=O)[C@H](C)NC)C4CCCCC4)C3)cc2)C[C@H]1C(=O)N[C@H](COCc1ccccc1)c1ccccc1)C1CCCCC1` [Compound 18], the EC50 in assay [1] was less than 10 nM; in assay [3], 10 to 100 nM.
